Drawing on ChEMBL document CHEMBL1158659, “The alkaloids of Delphinium cashmirianum” (J Nat Prod, 1979), this text covers Activity for five molecules.

Common to all, as to type: functional
The test system of assay [1] is Oryctolagus cuniculus. In words: Cardiovascular activity in Albino rabbit assessed as sinusoidal heart rate tested at basal heart rate of 180 beats/min at 0.05 mg/kg, iv by physiograph 4.
For assay [2], the system named is Oryctolagus cuniculus. In words: Cardiovascular activity in Albino rabbit assessed as change in heart rate tested at basal heart rate of 180 beats/min at 0.10 mg/kg, iv by physiograph 4. The settings on record: dose 0.1 mg/kg.
Assay [3] relates to Oryctolagus cuniculus. In words: Cardiovascular activity in Albino rabbit assessed as change in heart rate tested at basal heart rate of 178 beats/min at 1.0 mg/kg, iv by physiograph 4.
Assay [4] concerns Oryctolagus cuniculus. Kind of assay: Cardiovascular activity in Albino rabbit assessed as change in heart rate tested at basal heart rate of 178 beats/min at 0.50 mg/kg, iv by physiograph 4. The note with it: dose 0.5 mg/kg.
The test system of assay [5] is Oryctolagus cuniculus. In words: Cardiovascular activity in Albino rabbit assessed as change in heart rate tested at basal heart rate of 180 beats/min at 0.25 mg/kg, iv by physiograph 4.
For assay [6], the system named is Oryctolagus cuniculus. In words: Cardiovascular activity in Albino rabbit assessed as change in heart rate tested at basal heart rate of 180 beats/min at 1.0 mg/kg, iv by physiograph 4.
Assay [7] deals with Oryctolagus cuniculus. Kind of assay: Cardiovascular activity in Albino rabbit assessed as change in heart rate tested at basal heart rate of 180 beats/min at 0.50 mg/kg, iv by physiograph 4. The note with it: dose 0.5 mg/kg.
Assay [8] has as its system Oryctolagus cuniculus. In words: Cardiovascular activity in Albino rabbit assessed as change in heart rate tested at basal heart rate of 185 beats/min at 1.0 mg/kg, iv by physiograph 4.
Assay [9] relates to Oryctolagus cuniculus. Kind of assay: Cardiovascular activity in Albino rabbit assessed as change in heart rate tested at basal heart rate of 185 beats/min at 0.10 mg/kg, iv by physiograph 4. The note with it: dose 0.1 mg/kg.
Assay [10] concerns Oryctolagus cuniculus. Kind of assay: Cardiovascular activity in Albino rabbit assessed as change in heart rate tested at basal heart rate of 185 beats/min at 5.0 mg/kg, iv by physiograph 4.
Assay [11] has as its system Oryctolagus cuniculus. Kind of assay: Cardiovascular activity in Albino rabbit assessed as change in heart rate tested at basal heart rate of 185 beats/min at 0.25 mg/kg, iv by physiograph 4.
Assay [12] deals with Oryctolagus cuniculus. In words: Cardiovascular activity in Albino rabbit assessed as change in heart rate tested at basal heart rate of 185 beats/min at 0.50 mg/kg, iv by physiograph 4. The settings on record: dose 0.5 mg/kg.
Assay [13] concerns Oryctolagus cuniculus. In words: Cardiovascular activity in Albino rabbit assessed as change in heart rate tested at basal heart rate of 195 beats/min at 0.25 mg/kg, iv by physiograph 4.
The subject of assay [14] is Oryctolagus cuniculus. In words: Cardiovascular activity in Albino rabbit assessed as change in heart rate tested at basal heart rate of 195 beats/min at 1.0 mg/kg, iv by physiograph 4.
In assay [15] the test system is Oryctolagus cuniculus. Kind of assay: Cardiovascular activity in Albino rabbit assessed as change in heart rate tested at basal heart rate of 195 beats/min at 0.50 mg/kg, iv by physiograph 4. The settings on record: dose 0.5 mg/kg.
The test system of assay [16] is Oryctolagus cuniculus. In words: Cardiovascular activity in Albino rabbit assessed as change in heart rate tested at basal heart rate of 195 beats/min at 0.10 mg/kg, iv by physiograph 4. The note with it: dose 0.1 mg/kg.
Assay [17] relates to Oryctolagus cuniculus. Kind of assay: Cardiovascular activity in Albino rabbit assessed as change in heart rate tested at basal heart rate of 200 beats/min at 0.25 mg/kg, iv by physiograph 4.
Assay [18] concerns Oryctolagus cuniculus. In words: Cardiovascular activity in Albino rabbit assessed as sinusoidal heart rate tested at basal heart rate of 185 beats/min at 0.05 mg/kg, iv by physiograph 4.
The subject of assay [19] is Oryctolagus cuniculus. In words: Cardiovascular activity in Albino rabbit assessed as change in heart rate tested at basal heart rate of 200 beats/min at 0.50 mg/kg, iv by physiograph 4. The note with it: dose 0.5 mg/kg.
Assay [20] deals with Oryctolagus cuniculus. Kind of assay: Cardiovascular activity in Albino rabbit assessed as change in heart rate tested at basal heart rate of 200 beats/min at 0.10 mg/kg, iv by physiograph 4. The settings on record: dose 0.1 mg/kg.
The subject of assay [21] is Oryctolagus cuniculus. In words: Cardiovascular activity in Albino rabbit assessed as sinusoidal heart rate tested at basal heart rate of 200 beats/min at 0.05 mg/kg, iv by physiograph 4.
Assay [22] has as its system Oryctolagus cuniculus. Kind of assay: Cardiovascular activity in Albino rabbit assessed as change in heart rate tested at basal heart rate of 200 beats/min at 1.0 mg/kg, iv by physiograph 4.

The structures appear in SMILES notation.

With `CCN1C[C@]2(COC(=O)c3ccccc3NC(=O)CCC(=O)OC)CC[C@H](OC)[C@@]34[C@@H]5C[C@H]6[C@H](OC)[C@@H]5[C@](O)(C[C@@H]6OC)[C@](O)([C@@H](OC)[C@H]23)[C@@H]14` [CASHMIRADELPHINE], the Activity is given as -5 bpm in the assay with Oryctolagus cuniculus [1]; 5 bpm in the assay on Oryctolagus cuniculus [2]; -10 bpm with Oryctolagus cuniculus [3]; -8 bpm in the assay on Oryctolagus cuniculus [4]; -5 bpm in the assay with Oryctolagus cuniculus [5]; -20 bpm with Oryctolagus cuniculus [6]. Also, the Activity in the assay with Oryctolagus cuniculus [7] is -5 bpm.

Take `CCN1C[C@]2(O)CC[C@H](OC)[C@@]34[C@@H]2C[C@H]([C@@H]13)[C@@]1(O)C[C@H](OC)[C@H]2C[C@@H]4[C@]1(O)[C@H]2OC` [LAPPACONINE]: the Activity in the assay on Oryctolagus cuniculus [8] is 0 bpm; with Oryctolagus cuniculus [9], -5 bpm; in the assay with Oryctolagus cuniculus [10] it was 0 bpm; with Oryctolagus cuniculus [11] it was 0 bpm; in the assay with Oryctolagus cuniculus [12] it was 0 bpm.

For the molecule `CCN1C[C@]2(COC(=O)c3ccccc3N3C(=O)CCC3=O)CC[C@H](OC)[C@]34C1[C@](O)([C@@H](OC)[C@H]23)[C@@]1(O)C[C@H](OC)[C@H]2C[C@@H]4[C@@H]1[C@H]2OC` [LYCACONITINE], the Activity is recorded as 5 bpm with Oryctolagus cuniculus [13]; -5 bpm in the assay on Oryctolagus cuniculus [14]; 0 bpm with Oryctolagus cuniculus [15]; -10 bpm with Oryctolagus cuniculus [2]; 3 bpm in the assay on Oryctolagus cuniculus [16]; 0 bpm in the assay with Oryctolagus cuniculus [5]. The Activity with Oryctolagus cuniculus [7] was -10 bpm.

Take `CCN1C[C@]2(C=O)CC[C@H](OC)[C@@]34[C@@H]5C[C@@H]6[C@@H](OC)C[C@@](O)(C5[C@H]6OC)[C@](O)([C@@H](OC)[C@H]23)[C@@H]14` [LYCOCTONAL]: the Activity was 0 bpm in the assay on Oryctolagus cuniculus [8]; 0 bpm in the assay on Oryctolagus cuniculus [17]; 0 bpm in the assay with Oryctolagus cuniculus [18]; -5 bpm with Oryctolagus cuniculus [9]; -10 bpm in the assay with Oryctolagus cuniculus [10]; 0 bpm with Oryctolagus cuniculus [19]. Further, the Activity is reported as 0 bpm in the assay on Oryctolagus cuniculus [11], 0 bpm in the assay with Oryctolagus cuniculus [20], -3 bpm with Oryctolagus cuniculus [21] and 0 bpm in the assay on Oryctolagus cuniculus [12].

`CCN1C[C@]2(CO)CC[C@H](OC)[C@@]34[C@@H]5C[C@H]6[C@H](OC)[C@@H]5[C@](O)(C[C@@H]6OC)[C@](O)([C@@H](OC)[C@H]23)[C@@H]14` [LYCOCTONINE]: the Activity was 5 bpm with Oryctolagus cuniculus [17]; -25 bpm with Oryctolagus cuniculus [9]; 0 bpm in the assay with Oryctolagus cuniculus [19]; 5 bpm with Oryctolagus cuniculus [20]; 0 bpm in the assay with Oryctolagus cuniculus [22]; 0 bpm in the assay with Oryctolagus cuniculus [12].
